# Assay results from patent US10011596B2, “2-amino-3-fluoro-3-(fluoromethyl)-6-methyl-6-phenyl-3,4,5,6-tetrahydropyridines as BACE1 inhibitors” (H. Lundbeck A/S, priority 2015, dated 2018).
# Like-named read-outs stand apart in the source and are kept apart here.
# Experiments:
# [1] = Bioanalysis of brain and plasma samples (exposure, UPLC-MS/MS); type: in vivo, rat; details: male, Sprague Dawley, po, 3 hours post dose; for Kp at 3 h: brain/plasma, rat, read-out: Brain/Plasma ratio
# Experimental: Young adult Male Sprague Dawley rats of approximately 250 g weight were purchased from Charles River and received 0-30 mg/kg of vehicle (10% HP betaCD+1M MeSO4, pH 2.5) or test compounds (dissolved in vehicle) only by oral gavage (p.o). The compounds are dosed at a volume of 5 ml/kg. Cohorts of 5-10 animals were established for each treatment condition.
# At T=180 minutes after initial dosing the animals were stunned and decapitated with a guillotine. Trunk-blood was sampled in EDTA coated tubes after decapitation of the animal. The blood was centrifuged at 2200 G at 4° C. for 15 minutes and the plasma was collected and frozen at −80° C. The blood was aliquoted for Aβ ELISA and pharmacokinetic analysis. Immediately following sacrifice, the brain was extracted and split into 2 halves. The right hemibrains were snap frozen on dry ice and stored at −80° C. The left half was dissected; with the front forebrain taken for Aβ ELISA and the remainder used for DMPK analysis. These samples were also snap frozen on dry ice and stored at −80° C. until use for analysis.
# TC (test compound) was determined in plasma and brain homogenate using UltraPerformance LC® (U PLC®) chromatography followed by tandem-MS (MS/MS) detection.
# Brain homogenate was prepared by homogenizing the brain 1:4 (v/v) with water:2-propanol:DMSO (50:30:20 v/v/v) followed by centrifugation and collection of the supernatant. Calibration standards and QC samples were prepared using a Hamilton robot. 150 μL of ISTD in acetonitrile (1 ng/mL ISTD) was added to 25 μL of calibration standards, QC samples and test samples (plasma and brain homogenate) using a Biomek robot. After centrifugation (6200 g, 4° C., 20 min) 100 μL supernatant from each sample was transferred to a new plate and mixed with 100 μL water with 0.1% formic acid using a Biomek robot (method file InVivo transfer). After a quick centrifugation (6200 g, 4° C., 5 min) the samples were placed in the auto-sampler.
# MS/MS detection was done with an Applied Biosystems Sciex API 4000 instrument in positive-ion electrospray ionisation mode. TC and ISDD were detected at a parent>daughter mass to charge ratio (m/z). Nitrogen was used for the nebulizer and collision gases. The peak area correlated linearly with the plasma and brain concentration of the analytes in the range of 1.00-1000 ng/mL plasma and 5.00-5000 ng/g brain (corrected for dilution). If the plasma/brain sample drug concentration was above 1000 ng/mL or 5000 ng/g, the sample was diluted appropriately in blank plasma/blank brain homogenate before analysis.
# Compound 1 was administered at doses of 10 mg/kg p.o. and 30 mg/kg p.o. and brain and plasma samples were collected at 3 hours post dose and the following exposures were measured as described above.
# [2] = system: P-gp (MDR1); experiment: MDCK-MDR1 assay (permeability, efflux ratio); type: in vitro ADME; details: dog
# Experimental: The permeability of the test compounds was assessed in MDCK-MDR1 cells that were cultured to confluency (4-6 days) in a 96 transwell plate. Test compounds were diluted with the transport buffer (HBSS+1% BSA) to a concentration of 0.5 μM and applied to the apical or basolateral side of the cell monolayer. Permeation of the test compounds from A to B direction or B to A direction was determined in triplicate over a 60-minute incubation time at 37° C. and 5% CO2 with a relative humidity of 95%. Test compounds were quantified by LC-MS/MS analysis based on the peaks area ratios of analyte/IS in both the receiver and donor wells of the transwell plate.
# The apparent permeability coefficient Papp (cm/s) was calculated using the equation: Papp=(dCr/dt)×Vr/(A×C0)
# Where dCr/dt is the cumulative concentration of compound in the receiver chamber as a function of time (μM/s); Vr is the solution volume in the receiver chamber (0.05 mL on the apical side; 0.25 mL on the basolateral side); A is the surface area for the transport, i.e. 0.0804 cm^2 for the area of the monolayer; C0 is the initial concentration in the donor chamber (μM).
# [3] = biological target: T1, human BACE1 (Homo sapiens, UniProt P56817); experiment: BACE1 efficacy assay (FRET-based, commercial BACE1 kit); type: biochemical; set-up: purchased Life Technologies P2985; details: test compound at 10 μM
# Experimental: The efficacy assay was performed as a FRET-based assay using a commercially available BACE1 kit (Life Technologies, P2985). 2 μl test compound at 10 μM (final concentration) and 15 μl BACE1 enzyme from the kit (final concentration 3 nM) were preincubated for 15 minutes at room temperature before addition of 15 μl of substrate from the kit (250 nM final concentration) and incubated for additional 90 minutes at room temperature. The assay plate was subsequently read in a Pherastar (Ex540/Em590).
# [4] = biological target: T1, human BACE1; experiment: BACE1 binding assay (SPA-based, radioligand displacement); set-up: biotin (biotinylated form); made in house; host or cells: Freestyle HEK293 cells; details: pH 4.5, 10 nM radioligand, 6 nM human BACE1, read-out: BACE1 binding affinity
# Experimental: The binding assay was performed as SPA-based assay using a biotinylated form of human BACE1 recombinantly expressed and subsequently purified from Freestyle HEK293 cells. The binding assay was run in a 50 mM sodium acetate buffer, pH 4.5 containing 50 mM NaCl and 0.03% Tween-20 in white clear bottom 384 plates (Corning #3653). 10 nM (final concentration) radioligand ([^3H]-N-((1S,2R)-1-benzyl-3-cyclopropylamino-2-hydroxy-propyl)-5-(methanesulfonyl-methyl-amino)-N-((R)-1-phenyl-ethyl)-isophthalamide) (TRQ11569 purchased from GE Healthcare) was mixed with test compound at a given concentration, 6 nM (final concentration) human BACE1 and 25 μg Streptavidin coated PVT core SPA beads (RPNQ0007, GE Healthcare Life Sciences) in a total volume of 40 μl. Several concentrations of each test compound were tested in the assay for IC50 determination. The plates were incubated for one hour at room temperature and counted in a WaIlac Trilux counter. […] For each test compound, a IC50 value (the concentration mediating 50% inhibition of the specific binding of the radioligand) was determined from concentration-response curve and used to calculate the Ki from the equation Ki=IC50/(1+L/Kd), where L and Kd are the final concentration of the radioligand used in the assay and the dissociation constant of the radioligand, respectively. The Kd of the radioligand was determined from saturation binding experiments.
# [5] = rat brain, 10 mg/kg p.o., read-out: Exp (ng/g), brain
# [6] = rat brain, 30 mg/kg p.o., read-out: Exp (ng/g), brain
# [7] = rat plasma, 10 mg/kg p.o., read-out: Exp (ng/g), plasma
# [8] = rat plasma, 30 mg/kg p.o., read-out: Exp (ng/g), plasma
# T1 sequence (P56817 46-501): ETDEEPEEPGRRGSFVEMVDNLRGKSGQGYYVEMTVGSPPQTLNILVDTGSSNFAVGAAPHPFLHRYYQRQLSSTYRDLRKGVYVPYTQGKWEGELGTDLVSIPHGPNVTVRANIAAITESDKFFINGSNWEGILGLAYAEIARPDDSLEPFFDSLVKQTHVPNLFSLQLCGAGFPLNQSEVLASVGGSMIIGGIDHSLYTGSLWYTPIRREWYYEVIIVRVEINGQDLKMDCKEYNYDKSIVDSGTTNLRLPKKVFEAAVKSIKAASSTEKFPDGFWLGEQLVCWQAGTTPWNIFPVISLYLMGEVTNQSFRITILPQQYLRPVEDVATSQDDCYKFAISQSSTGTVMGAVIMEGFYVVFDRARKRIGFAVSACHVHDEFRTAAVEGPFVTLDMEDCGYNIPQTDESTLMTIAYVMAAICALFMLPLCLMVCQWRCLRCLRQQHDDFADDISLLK
Kp at 3 h ([1]; 10 mg/kg p.o.),Kp at 3 h ([1]; 30 mg/kg p.o.),"concentration at 3 h [1, 5] [ng/g]","concentration at 3 h [1, 6] [ng/g]","concentration at 3 h [1, 7] [ng/g]","concentration at 3 h [1, 8] [ng/g]","efflux ratio at 60 min, 0.5 µM [2]",inhibition at 10 µM [3] [%],Ki [4] [nM],Compound
1.95,2.74,536,1610,275,587,1.07,103,24,"COc1cnc(C(=O)Nc2ccc(F)c([C@]3(C)CC[C@@](F)(CF)C(N)=N3)c2)cn1 [Compound 5, N-(3-((2S,5S)-6-Amino-5-fluoro-5-(fluoromethyl)-2-methyl-2,3,4,5-tetrahydropyridin-2-yl)-4-fluorophenyl)-5-methoxypyrazine-2-carboxamide]"
1.25,1.59,588,1590,469,1000,1.5,100,40,"C[C@@]1(c2cc(NC(=O)c3ccc(F)cn3)ccc2F)CC[C@@](F)(CF)C(N)=N1 [Compound 13, N-(3-((2S,5S)-6-Amino-5-fluoro-5-(fluoromethyl)-2-methyl-2,3,4,5-tetrahydropyridin-2-yl)-4-fluorophenyl)-5-fluoropicolinamide]"
2.1,2.3,416,1350,195,590,1.89,103,55,C[C@@]1(c2cc(NC(=O)c3cnc(C(F)F)cn3)ccc2F)CC[C@@](F)(CF)C(N)=N1 [Compound 11]
